Results reported in patent publication US9303045B2, “5-HT3 receptor antagonists” (Takeda Pharmaceutical Company Limited, priority 2013, dated 2016).
pIC50: −log10 of the molar value. Structures can show the parent of a compound that is named as a salt.

How the values were obtained:
[1] = test system: PCP-induced cognitive deficits; assay: Rodent novel object recognition (NOR) assay in phencyclidine-induced cognitive deficits modeling schizophrenia; format: in vivo, rat; set-up: key to time spent exploring novel object (TN) / time spent exploring familiar object (TF): exploration time in seconds; details: PCP-treated rats, 2 h ITI
Excerpt: Rodent Novel Object Recognition (NOR) Assay in Phencyclidine-Induced Cognitive Deficits Modeling Schizophrenia
The aim of this study was to investigate the ability of the compounds of the invention to improve subchronic PCP-induced impairment in cognition memory using the NOR task in the rat, a paradigm of relevance to cognition in schizophrenia. Adult male Sprague-Dawley rats (250-350 g; Harlan, USA) were used for the experiments Animal were acclimated to the facility for 7 days prior to experimentation. Seven groups of 14 animals per group were used for the experiment. One group of animals received vehicle (0.9% saline twice daily) and the remaining six groups received PCP (2.5 mg/kg, s.c. twice daily) for 7 days, followed by 5-days drug free. On the test day, the animals were allowed to acclimate to the testing room for 30 min prior to initiation of experiments. Experiments were carried out in a white plexiglass chamber, designated as experimental arena. The arena was placed in a dark experimental room that was illuminated by a halogen lamp, providing a dim light to the arena.
Animals were placed in the arena for a 5 minute period to freely explore the test chamber in the absence of objects (habituation). Animals were then returned to their home cage immediately upon completion of habituation for a 120 min period. (1R,3R,5S)-8-Methyl-8-azabicyclo[3.2.1]octan-3-yl 1-(2,2,2-trifluoroethyl)-1H-indole-3-carboxylate (0.1, 1, 10 mg/kg s.c.), or vehicle (veh, saline) was administered 120 min prior to T1 and galantamine (5 mg/kg, i.p.) was administered 30 min prior to T1. Animals were returned to the arena which contained two identical objects (plastic balls) placed at one end of the arena (acquisition, T1), and allowed to explore for a 5 min period. The time spent exploring the two objects was recorded Animals were once again returned to the home cage for a period of 120 min (ITI).
ITI was followed by the retention phase (T2) where one of the objects presented in the first trial was replaced by a novel object and animals were allowed to explore for an additional 5 min period. Again, the time spent exploring the two objects was recorded.
For the retention phase, the differences between the time spent exploring the familiar object and the novel object were examined. All sessions were recorded and scored blindly for the time exploring objects. Exploration is defined as touching the object or directing nose towards object at a distance less that 2 cm. A minimal exploration criterion was used such that only animals with exploration time of greater than 5 seconds per object were included.
Comparisons of all treatment groups were conducted using a one-way ANOVA followed by a Bonferroni's post hoc test for multiple comparisons.

[2] = target: 5HT3a receptor expressed in HEK-293T cells (Homo sapiens (Human), UniProt P46098); assay: Inhibition of Ca flux activity of 5HT3 in vitro assay; format: cell-based; details: calcium flux, 5HT 216 nM, approximate values
Sequence of 5HT3a receptor expressed in HEK-293T cells (P46098 24-478): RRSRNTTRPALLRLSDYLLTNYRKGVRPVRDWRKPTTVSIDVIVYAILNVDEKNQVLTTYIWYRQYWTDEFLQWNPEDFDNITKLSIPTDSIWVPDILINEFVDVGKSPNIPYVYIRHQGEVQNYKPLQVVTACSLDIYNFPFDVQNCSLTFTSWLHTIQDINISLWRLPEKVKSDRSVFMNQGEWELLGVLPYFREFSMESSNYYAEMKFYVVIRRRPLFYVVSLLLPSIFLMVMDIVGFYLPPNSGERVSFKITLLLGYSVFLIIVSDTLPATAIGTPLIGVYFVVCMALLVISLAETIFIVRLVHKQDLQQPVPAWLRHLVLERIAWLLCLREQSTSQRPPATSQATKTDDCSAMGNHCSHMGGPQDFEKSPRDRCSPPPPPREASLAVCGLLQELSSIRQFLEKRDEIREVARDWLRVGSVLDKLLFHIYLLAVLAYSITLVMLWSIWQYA
In short: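 HEK-293T cells transiently transfected with human 5HT3a, loaded 1 hour at 37° C with calcium dye in HBSS/20 mM HEPES, preincubated with compound (10^−7 to 10^−10, half-log) 10 minutes at room temperature.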

[3] = 0.1 mg/kg s.c. (bracket prints 0.01 mg/kg)
[4] = 1 mg/kg s.c. (bracket prints 0.1 mg/kg)

CN1[C@@H]2CC[C@H]1C[C@@H](OC(=O)c1cn(CC(F)(F)F)c3ccccc13)C2
time spent exploring familiar object (TF) [1, 3]: 12.5±2.152 | time spent exploring novel object (TN) [1, 3]: 22.9±3.65 | discrimination between familiar and novel objects ([1]; 0.1 mg/kg s.c.): did not demonstrate a statistically significant discrimination | time spent exploring familiar object (TF) [1, 4]: 12.7±1.027 | time spent exploring novel object (TN) [1, 4]: 25.3±2.51 | discrimination between familiar and novel objects ([1]; 1 mg/kg s.c.): demonstrated a statistically significant discrimination | discrimination between familiar and novel objects ([1]; 10 mg/kg s.c.): demonstrated a statistically significant discrimination | time spent exploring familiar object (TF) ([1]; 10 mg/kg s.c.): 9.831±1.53 | time spent exploring novel object (TN) ([1]; 10 mg/kg s.c.): 22.8±2.48

COc1ccc2c3c1O[C@H]1C[C@@H](O)C=C[C@@]31CCN(C)C2 [Galantamine, galantamine, reference compound]
discrimination between familiar and novel objects ([1]; galantamine 5 mg/kg i.p.): statistically significant discrimination | time spent exploring familiar object (TF) ([1]; galantamine 5 mg/kg i.p.): 11.19±1.376 | time spent exploring novel object (TN) ([1]; galantamine 5 mg/kg i.p.): 22.8±2.2

CN1[C@@H]2CC[C@H]1CC(NC(=O)c1cn(CC(F)F)c3ccc(F)cc13)C2 (stereo partly drawn) [Example 75, 1-(2,2-difluoroethyl)-5-fluoro-N-((1R,3R,5S)-8-methyl-8-azabicyclo[3.2.1]octan-3-yl)-1H-indole-3-carboxamide, 2,2,2-trifluoroacetate]
pIC50 [2]: 8.50

CN1[C@@H]2CC[C@H]1CC(OC(=O)c1cn(CC(F)F)c3ncccc13)C2 (stereo partly drawn) [Example 72, (1R,3R,5S)-8-methyl-8-azabicyclo[3.2.1]octan-3-yl 1-(2,2-difluoroethyl)-1H-pyrrolo[2,3-b]pyridine-3-carboxylate, 2,2,2-trifluoroacetate]
pIC50 [2]: 8.44

CN1C2COCC1CC(NC(=O)c1cn(-c3nccs3)c3ccccc13)C2 [Example 118, N-((1R,5S,7S)-9-methyl-3-oxa-9-azabicyclo[3.3.1]nonan-7-yl)-1-(thiazol-2-yl)-1H-indole-3-carboxamide, 2,2,2-trifluoroacetate]
pIC50 [2]: 9.07

CN1C2COCC1CC(NC(=O)c1cn(-c3cncs3)c3ncccc13)C2 [Example 148, N-((1R,5S,7s)-9-methyl-3-oxa-9-azabicyclo[3.3.1]nonan-7-yl)-1-(thiazol-5-yl)-1H-pyrrolo[2,3-b]pyridine-3-carboxamide, 2,2,2-trifluoroacetic acid salt]
pIC50 [2]: 9.40

CC(C)S(=O)(=O)n1cc(C(=O)OC2C[C@H]3COC[C@@H](C2)N3)c2cc(F)ccc21 (stereo partly drawn) [Example 54, (1R,5S,7S)-3-oxa-9-azabicyclo[3.3.1]nonan-7-yl 5-fluoro-1-(isopropylsulfonyl)-1H-indole-3-carboxylate, 2,2,2-trifluoroacetate]
pIC50 [2]: 8.25

N-((1R,5S,7S)-3-oxa-9-azabicyclo[3.3.1]nonan-7-yl)-5-fluoro-1-(2,2,2-trifluoroethyl)-1H-indole-3-carboxamide 2,2,2-trifluoroacetate [Example 17]
pIC50 [2]: 8.36

N#Cc1ccc(-n2cc(C(=O)O[C@H]3C[C@H]4COC[C@@H](C3)N4)c3ccccc32)cc1 [Example 180, (1R,5S,7s)-3-oxa-9-azabicyclo[3.3.1]nonan-7-yl 1-(4-cyanophenyl)-1H-indole-3-carboxylate, 2,2,2-trifluoroacetic acid salt]
pIC50 [2]: 8.23

CN1C2CCC1CC(OC(=O)c1cn([C@H]3CCOC3)c3ccccc13)C2 (stereo partly drawn) [Example 96, (1R,3R,5S)-8-methyl-8-azabicyclo[3.2.1]octan-3-yl 1-((S)-tetrahydrofuran-3-yl)-1H-indole-3-carboxylate, 2,2,2-trifluoroacetate]
pIC50 [2]: 9.08

(1R,5S,7S)-3-Oxa-9-azabicyclo[3.3.1]nonan-7-yl 1-(2,2-difluoroethyl)-5-fluoro-1H-indole-3-carboxylate 2,2,2-trifluoroacetic acid [Example 13]
pIC50 [2]: 9.03

CCS(=O)(=O)n1cc(C(=O)OC2C[C@H]3COC[C@@H](C2)N3)c2ccccc21 (stereo partly drawn) [Example 133, (1R,5S,7S)-3-oxa-9-azabicyclo[3.3.1]nonan-7-yl 1-(ethylsulfonyl)-1H-indole-3-carboxylate, 2,2,2-trifluoroacetate]
pIC50 [2]: 8.82

CN1[C@@H]2CCC[C@H]1CC(NC(=O)c1cn(CC(F)F)c3ncccc13)C2 (stereo partly drawn) [Example 77, 1-(2,2-difluoroethyl)-N-((1R,3R,5S)-9-methyl-9-azabicyclo[3.3.1]nonan-3-yl)-1H-pyrrolo[2,3-b]pyridine-3-carboxamide, 2,2,2-trifluoroacetate]
pIC50 [2]: 7.98

CN1C2COCC1CC(NC(=O)c1cn(-c3nccs3)c3ncc(F)cc13)C2 [Example 162, 5-fluoro-N-((1R,5S,7s)-9-methyl-3-oxa-9-azabicyclo[3.3.1]nonan-7-yl)-1-(thiazol-2-yl)-1H-pyrrolo[2,3-b]pyridine-3-carboxamide, 2,2,2-trifluoroacetic acid salt]
pIC50 [2]: 8.74

CN1C2COCC1CC(NC(=O)c1cn(-c3ccns3)c3ccccc13)C2 [Example 158, 1-(isothiazol-5-yl)-N-((1R,5S,7s)-9-methyl-3-oxa-9-azabicyclo[3.3.1]nonan-7-yl)-1H-indole-3-carboxamide, 2,2,2-trifluoroacetic acid salt]
pIC50 [2]: 8.87

CC(C)S(=O)(=O)n1cc(C(=O)NC2C[C@H]3COC[C@@H](C2)N3C)c2ccccc21 (some centres unmarked)
pIC50 [2]: 9.24

CN1[C@@H]2CC[C@H]1CC(OC(=O)c1c(Cl)n(CC(F)F)c3ccccc13)C2 (stereo partly drawn) [Example 43, (1R,3R,5S)-8-methyl-8-azabicyclo[3.2.1]octan-3-yl 2-chloro-1-(2,2-difluoroethyl)-1H-indole-3-carboxylate, 2,2,2-trifluoroacetate]
pIC50 [2]: 8.99

CS(=O)(=O)n1cc(C(=O)OC23CCN(CC2)CC3)c2cc(F)ccc21 [Example 37, quinuclidin-4-yl 5-fluoro-1-(methylsulfonyl)-1H-indole-3-carboxylate, 2,2,2-trifluoroacetate]
pIC50 [2]: < 6.00

CN1[C@@H]2COC[C@H]1CC(NC(=O)c1cn(-c3cccnn3)c3ccccc13)C2 (stereo partly drawn) [Example 123, N-((1R,5S,7S)-9-methyl-d3-3-oxa-9-azabicyclo[3.3.1]nonan-7-yl)-1-(pyridazin-3-yl)-1H-indole-3-carboxamide, 2,2,2-trifluoroacetate]
pIC50 [2]: 9.55

CN1[C@@H]2COC[C@H]1CC(NC(=O)c1cn(-c3ccnnc3)c3ccccc13)C2 (stereo partly drawn) [Example 190, N-((1R,5S,7S)-9-methyl-3-oxa-9-azabicyclo[3.3.1]nonan-7-yl)-1-(pyridazin-4-yl)-1H-indole-3-carboxamide]
pIC50 [2]: 9.12

CN1[C@@H]2CC[C@H]1CC(OC(=O)c1cn(CC(F)(F)F)c3ncccc13)C2 (stereo partly drawn) [Example 41, (1R,3R,5S)-8-methyl-8-azabicyclo[3.2.1]octan-3-yl 1-(2,2,2-trifluoroethyl)-1H-pyrrolo[2,3-b]pyridine-3-carboxylate, 2,2,2-trifluoroacetate]
pIC50 [2]: 8.25

N-((1R,5S,7S)-3-oxa-9-azabicyclo[3.3.1]nonan-7-yl)-5-fluoro-1-(2,2,2-trifluoroethyl)-1H-indole-3-carboxamide 2,2,2-trifluoroacetic acid [Example 16]
pIC50 [2]: 8.49
